From patent US9199983B2, “3-aryl-6-aryl-[1,2,4]triazolo[4,3-α]pyridines as inhibitors of cell proliferation and the use thereof” (priority 2010, dated 2015)

Tests used:
[1] = test system: Human lung cancer cell line A549; test: MTT cancer cell cytotoxicity assay, A549; type: cell-based; conditions: Homo sapiens, A549 cells, 48-72 h
Description: (§1) Identification of 3-(2-methoxyphenyl)-6-(4-methoxyphenyl)-[1,2,4]triazolo[4,3-a]pyridine and analogs as inhibitors of cell proliferation that were evaluated with standard MTT cancer cell cytotoxicity assay (IC50)
(§2) Human lung cancer cell line A549, breast cancer cell line T47D, liver cancer cell lines HepG2 and SMMC7721 as well as a mouse melanoma cell line B16F10 were used in the study. The cells were cultured in corresponding growth media recommended by American Type Culture Collection (ATCC) with the supplementation of penicillin G (100 U/ml)/streptomycin (100 µg/ml), and 10% fetal bovine serum (Hangzhou Sijiqing Biological Engineering Materials, Co., Ltd. China) at 37° C. in a humidified atmosphere containing 5% CO2. Cells at about 80% confluency were harvested by trypsinization. Cells were centrifuged, re-suspended in fresh growth media and counted. Corresponding numbers of cells were seeded to 96-well cell culture plates (HepG2 cell, T-47D and A549 cells at 3000 cells/well, SMMC-7721 cells at 5000 cells/well and B16F10 cells at 2000 cells/well) in a total volume of […]. Cells were incubated in CO2 incubator over night to allow the cells to attach. In next day, […] of medium containing testing (from 10 μM to 1 nM) or reference compounds was added to each well of the cells. Media without compound were used as 100% control. Cells were treated with each concentration of compounds in triplicates to ensure data accuracy. Cells were incubated with compounds in CO2 incubator for an additional 48-72 h at 37° C. After incubation, cells were removed from the CO2 incubator and […] of 5 mg/ml MTT (3-(4,5-dimethylthiazole-2-yl)-2,5-diphenyltetrazoliumbromide, Sigma) solution in PBS was added to each well. Cells were returned to CO2 incubator and incubated for additional 4 h. After the incubation, media were removed by aspiration and […] DMSO was added to each well. Plates were sealed with aluminum foil and shaked mildly on an orbital shaker for 10 min at room temperature. The absorption was measured at 550 nm with a plate reader (Varioskan Flash, Thermo Fisher Scientific) with 660 nm reading used as background control. The relative absorbance readings were calculated by subtracting readings at 660 nm from that at 550 nm. The relative absorbance was plotted again the concentrations of the testing compounds and the plots were fitted with a one-site lg(IC50) equation using Prism 5 software (GraphPad Software, Inc). The equation used in the curve fitting is as follows: relative absorbance reading=background reading+(maximal reading−brackground reading)/(1+10 ^(compound concentration-log IC50)). The background reading used in the calculation was obtained with 100% cell death using a reference anticancer drug, whereas the maximal reading was obtained in the well with no added compound. The IC50 value calculated from the equation represents the cytotoxic potency of a particular compound.

[2] = test system: liver cancer cell line HepG2; test: MTT cancer cell cytotoxicity assay, HepG2; type: cell-based, human; conditions: Homo sapiens, HepG2 cells, 48-72 h
Description: as §1, §2

[3] = test system: liver cancer cell line SMMC7721; test: MTT cancer cell cytotoxicity assay, SMMC7721; type: cell-based, human; conditions: Homo sapiens, SMMC-7721, SMMC7721 cells, 48-72 h
Description: as §1, §2

[4] = test system: breast cancer cell line T47D; test: MTT cancer cell cytotoxicity assay, T47D; type: cell-based, human; conditions: Homo sapiens, T47D cells, 48-72 h
Description: as §1, §2

Compound | IC50 [1] [nM] | IC50 [2] [nM] | IC50 [3] [nM] | IC50 [4] [nM]
COc1ccccc1-c1nnc2ccc(-c3ccc(C)c([N+](=O)[O-])c3)cn12 [Example 10, 3-(2-Methoxyphenyl)-6-(4-methyl-3-nitrophenyl)-[1,2,4]triazolo[4,3-a]pyridine] | > 10000 | 382 | 618 | 1370
COc1ccc(-c2ccc3nnc(-c4c(F)cccc4OC)n3c2)cc1 [Example 63, 3-(6-Fluoro-2-methoxyphenyl)-6-(4-methoxyphenyl)-[1,2,4]triazolo[4,3-a]pyridine] | 174 | 236 | 36 | 149
COc1ccc(-c2cc(C)c3nnc(-c4ccccc4OC)n3c2)cc1 [Example 55, 3-(2-Methoxyphenyl)-6-(4-methoxyphenyl)-8-methyl-[1,2,4]triazolo[4,3-a]pyridine] | 122 | 88 | 58 | 260
COc1ccc(-c2ccc3nnc(-c4cc(S(N)(=O)=O)ccc4OC)n3c2)cc1 [Example 75, 6-(4-Methoxyphenyl)-3-(2-methoxy-5-sulfamoylphenyl)-[1,2,4]triazolo[4,3-a]pyridine] | > 10000 | > 10000 | > 10000 | > 10000
COc1ccccc1-c1nnc2ccc(-c3cccc(O)c3)cn12 [Example 12, 6-(3-Hydroxyphenyl)-3-(2-methoxyphenyl)-[1,2,4]triazolo[4,3-a]pyridine] | 7180 | 2950 | > 10000 | > 10000
COc1ccc(-c2ccc3nnc(-c4c(OC)cccc4OC)n3c2)cc1 [Example 61, 3-(2,6-Dimethoxyphenyl)-6-(4-methoxyphenyl)-[1,2,4]triazolo[4,3-a]pyridine] | 2560 | 949 | 258 | 2920
COc1ccc(-c2ccc3nnc(-c4ccccc4OC)n3c2)c(OC)c1 [Example 36, 6-(2,4-Dimethoxyphenyl)-3-(2-methoxyphenyl)-[1,2,4]triazolo[4,3-a]pyridine] | 74 | 78 | 29 | 315
COc1ccc(-c2ccc3nnc(-c4ccccc4OC)n3c2)c(C)c1 [Example 8, 6-(4-Methoxy-2-methylphenyl)-3-(2-methoxyphenyl)-[1,2,4]triazolo[4,3-a]pyridine] | 91 | 55 | 24 | 103
COc1ccc(-c2ccc3nnc(-c4cccc(OC)c4)n3c2)cc1 [Example 77, 3-(3-Methoxyphenyl)-6-(4-methoxyphenyl)-[1,2,4]triazolo[4,3-a]pyridine] | 4880 | 2210 | 962 | 1950
COc1ccc(-c2cn3c(-c4ccccc4OC)nnc3cc2C)cc1 [Example 54, 3-(2-Methoxyphenyl)-6-(4-methoxyphenyl)-7-methyl-[1,2,4]triazolo[4,3-a]pyridine] | 428 | 134 | 94 | 151
COc1ccccc1-c1nnc2ccc(-c3cc(C)c(OC)c(C)c3)cn12 [Example 30, 6-(3,5-Dimethyl-4-methoxyphenyl)-3-(2-methoxyphenyl)-[1,2,4]triazolo[4,3-a]pyridine] | > 10000 | 2370 | 1760 | 5160
CCOc1ccc(-c2ccc3nnc(-c4ccccc4OC)n3c2)cc1C [Example 16, 6-(4-Ethoxy-3-methylphenyl)-3-(2-methoxyphenyl)-[1,2,4]triazolo[4,3-a]pyridine] | 160 | 107 | 33 | 152
COc1ccc(-c2ccc3nnc(-c4ccccc4OC)n3c2)cc1OC [Example 31, 6-(3,4-Dimethoxyphenyl)-3-(2-methoxyphenyl)-[1,2,4]triazolo[4,3-a]pyridine] | 241 | 474 | 492 | 765
